Target: T1, SMARCA2 (Homo sapiens, UniProt P51531)
T1 construct: endogenous in cells; host or cells: HT1080 (CRISPR HiBiT knock-in clone, generated in house)
Assay: SMARCA2 HiBiT degradation assay (cellular)
Type: cell-based
Conditions: table head names A549; for DC50: 6 h incubation, HiBiT-tagged SMARCA2, luminescence read-out, read-out: HiBit A549 SMARCA2 IP (nM) 6 h; for Emax: A549, 6 h incubation, Emax = amount of residual protein remaining in the cell following compound treatment

T1 sequence (P51531 whole entry): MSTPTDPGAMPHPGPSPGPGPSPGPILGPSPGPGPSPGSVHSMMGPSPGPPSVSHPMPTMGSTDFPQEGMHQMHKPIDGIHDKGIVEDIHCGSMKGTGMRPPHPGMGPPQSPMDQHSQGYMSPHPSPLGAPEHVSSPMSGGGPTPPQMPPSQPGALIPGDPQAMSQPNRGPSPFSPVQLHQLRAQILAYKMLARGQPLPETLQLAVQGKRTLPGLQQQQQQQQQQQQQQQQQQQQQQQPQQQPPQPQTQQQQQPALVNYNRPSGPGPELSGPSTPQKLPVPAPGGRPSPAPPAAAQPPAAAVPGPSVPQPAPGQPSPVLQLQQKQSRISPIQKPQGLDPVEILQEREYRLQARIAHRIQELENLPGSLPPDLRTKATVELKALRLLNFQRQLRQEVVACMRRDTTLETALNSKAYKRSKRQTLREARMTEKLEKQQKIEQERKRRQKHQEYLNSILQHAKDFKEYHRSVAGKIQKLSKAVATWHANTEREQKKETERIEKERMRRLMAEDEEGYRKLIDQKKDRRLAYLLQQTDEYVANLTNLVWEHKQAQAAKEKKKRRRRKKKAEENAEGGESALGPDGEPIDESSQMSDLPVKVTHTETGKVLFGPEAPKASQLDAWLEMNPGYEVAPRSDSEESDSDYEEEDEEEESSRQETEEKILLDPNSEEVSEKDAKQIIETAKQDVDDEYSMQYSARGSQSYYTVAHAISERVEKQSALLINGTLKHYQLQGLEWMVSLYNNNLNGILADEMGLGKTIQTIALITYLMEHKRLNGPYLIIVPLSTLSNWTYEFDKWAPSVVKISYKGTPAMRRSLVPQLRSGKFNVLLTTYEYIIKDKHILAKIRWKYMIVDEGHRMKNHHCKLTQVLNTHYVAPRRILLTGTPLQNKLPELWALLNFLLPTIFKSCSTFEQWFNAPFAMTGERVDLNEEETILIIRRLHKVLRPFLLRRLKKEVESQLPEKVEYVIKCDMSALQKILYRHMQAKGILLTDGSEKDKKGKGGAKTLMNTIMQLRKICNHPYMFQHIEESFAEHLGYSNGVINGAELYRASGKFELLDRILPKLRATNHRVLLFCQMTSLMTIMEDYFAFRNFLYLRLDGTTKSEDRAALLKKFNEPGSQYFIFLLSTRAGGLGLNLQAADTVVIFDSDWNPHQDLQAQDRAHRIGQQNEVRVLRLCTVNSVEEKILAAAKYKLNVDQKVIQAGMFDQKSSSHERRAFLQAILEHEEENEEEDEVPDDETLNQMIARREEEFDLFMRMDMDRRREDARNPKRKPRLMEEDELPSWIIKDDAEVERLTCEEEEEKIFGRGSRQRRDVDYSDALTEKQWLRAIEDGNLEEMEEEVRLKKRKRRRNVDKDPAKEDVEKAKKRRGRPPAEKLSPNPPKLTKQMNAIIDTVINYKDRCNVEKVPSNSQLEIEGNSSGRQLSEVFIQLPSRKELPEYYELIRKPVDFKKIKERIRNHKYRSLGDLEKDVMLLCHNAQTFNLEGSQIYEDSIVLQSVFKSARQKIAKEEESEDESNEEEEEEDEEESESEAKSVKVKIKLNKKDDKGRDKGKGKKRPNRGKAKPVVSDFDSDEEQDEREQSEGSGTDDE

**Q.** How did the DC50 turn out when Nc1nnc(-c2ccccc2O)cc1N1CC2CCC(C1)N2c1cccc(CN2CCN(C(=O)CCC3CCN(c4ccc5c(c4)C(=O)N(C4CCC(=O)NC4=O)C5=O)CC3)CC2)n1 (racemic) [Example 133, rac-5-[4-[3-[4-[[6-[3-[3-amino-6-(2-hydroxyphenyl)pyridazin-4-yl]-3,8-diazabicyclo[3.2.1]octan-8-yl]-2-pyridyl]methyl]piperazin-1-yl]-3-oxo-propyl]-1-piperidyl]-2-(2,6-dioxo-3-piperidyl)isoindoline-1,3-dione] was run?
**A.** 64 nM

**Q.** And the Emax?
**A.** 44%

**Q.** For Nc1nnc(-c2ccccc2O)cc1N1CC2CCC(C1)N2c1cccc(CN2CCN(C(=O)CN3CCC(c4ccc(NC5CCC(=O)NC5=O)cc4)CC3)CC2)c1 (racemic) [Example 149, rac-3-[4-[1-[2-[4-[[3-[3-[3-Amino-6-(2-hydroxyphenyl)pyridazin-4-yl]-3,8-diazabicyclo[3.2.1]octan-8-yl]phenyl]methyl]piperazin-1-yl]-2-oxo-ethyl]-4-piperidyl]anilino]piperidine-2,6-dione], which DC50 is on record?
**A.** 18 nM

**Q.** And the Emax?
**A.** 40%

**Q.** With Nc1nnc(-c2ccccc2O)cc1N1CC2CCC(C1)N2c1cccc(OCCN2CCN(C(=O)CCCCCCNc3cccc4c3C(=O)N(C3CCC(=O)NC3=O)C4=O)CC2)c1 (stereo not drawn) [Example 1, 4-[[7-[4-[2-[3-[3-[3-amino-6-(2-hydroxyphenyl)pyridazin-4-yl]-3,8-diazabicyclo[3.2.1]octan-8-yl]phenoxy]ethyl]piperazin-1-yl]-7-oxo-heptyl]amino]-2-(2,6-dioxo-3-piperidyl)isoindoline-1,3-dione] as the molecule, how does the DC50 read?
**A.** 68 nM

**Q.** And the Emax?
**A.** 55%

**Q.** Which results are given for Nc1nnc(-c2ccccc2O)cc1N1CCC(C(=O)N2CC3(CCN(C(=O)COc4ccc5c(c4)C(=O)N(C4CCC(=O)NC4=O)C5=O)C3)C2)(c2ccccc2)CC1 (stereo not drawn) [Example 189, 5-(2-(2-(1-(3-amino-6-(2-hydroxyphenyl)pyridazin-4-yl)-4-phenylpiperidine-4-carbonyl)-2,6-diazaspiro[3.4]octan-6-yl)-2-oxoethoxy)-2-(2,6-dioxopiperidin-3-yl)isoindoline-1,3-dione]?
**A.** DC50: 1370 nM; Emax: 62%

**Q.** Nc1nnc(-c2ccccc2O)cc1N1CCN(c2cccc(CN3CCN(C(=O)CC4CCN(c5ccc6c(c5)C(=O)N(C5CCC(=O)NC5=O)C6=O)CC4)CC3)c2)C2(CC2)C1 (stereo not drawn) [Example 130, 5-(4-(2-(4-(3-(7-(3-amino-6-(2-hydroxyphenyl)pyridazin-4-yl)-4,7-diazaspiro[2.5]octan-4-yl)benzyl)piperazin-1-yl)-2-oxoethyl)piperidin-1-yl)-2-(2,6-dioxopiperidin-3-yl)isoindoline-1,3-dione] was tested. Which DC50 did it give?
**A.** 12 nM

**Q.** What about the Emax of the same molecule?
**A.** 43%

**Q.** Which DC50 does the source give for Nc1nnc(-c2ccccc2O)cc1OC1CCCN(c2ccc(N3CCN(CC4CN(C(=O)CCCCn5cc(COc6cccc7c6C(=O)N(C6CCC(=O)NC6=O)C7=O)nn5)C4)CC3)cc2)C1 (racemic) [Example 137, 2-(2,6-dioxo-3-piperidyl)-4-[[1-[5-oxo-5-[3-[[4-[4-[rac-(3S)-3-[3-amino-6-(2-hydroxyphenyl)pyridazin-4-yl]oxy-1-piperidyl]phenyl]piperazin-1-yl]methyl]azetidin-1-yl]pentyl]triazol-4-yl]methoxy]isoindoline-1,3-dione] here?
**A.** 535 nM

**Q.** And the Emax?
**A.** 63%

**Q.** How did the DC50 turn out when Nc1nnc(-c2ccccc2O)cc1N1CC2CCC(C1)N2c1cccc(OCCN2CCN(C(=O)N3C[C@@H]4CN(c5ccc6c(c5)C(=O)N(C5CCC(=O)NC5=O)C6=O)C[C@@H]4C3)CC2)c1 (relative stereo) [Example 157, rac-2-(2,6-dioxo-3-piperidyl)-5-[rel-(3aS,6aR)-5-[4-[2-[3-[3-[3-amino-6-(2-hydroxyphenyl)pyridazin-4-yl]-3,8-diazabicyclo[3.2.1]octan-8-yl]phenoxy]ethyl]piperazine-1-carbonyl]-1,3,3a,4,6,6a-hexahydropyrrolo[3,4-c]pyrrol-2-yl]isoindoline-1,3-dione] was run?
**A.** 108 nM

**Q.** And the Emax?
**A.** 68%

**Q.** Nc1nnc(-c2ccccc2O)cc1N1CCC(CNC(=O)CNc2cccc3c2C(=O)N(C2CCC(=O)NC2=O)C3=O)(c2ccccc2)CC1 (stereo not drawn) [Example 76, N-((1-(3-amino-6-(2-hydroxyphenyl)pyridazin-4-yl)-4-phenylpiperidin-4-yl)methyl)-2-((2-(2,6-dioxopiperidin-3-yl)-1,3-dioxoisoindolin-4-yl)amino)acetamide] was tested. Which DC50 did it give?
**A.** 221 nM

**Q.** And the Emax?
**A.** 57%

**Q.** What does the source list for Nc1nnc(-c2ccccc2O)cc1N1CC2CCC(C1)N2c1cccc(OCCN2CCN(C(=O)N3CCC4(CC3)CCN(c3ccc5c(c3)C(=O)N(C3CCC(=O)NC3=O)C5=O)CC4)CC2)c1 (racemic) [Example 52, rac-5-[3-[4-[2-[3-[3-[3-amino-6-(2-hydroxyphenyl)pyridazin-4-yl]-3,8-diazabicyclo[3.2.1]octan-8-yl]phenoxy]ethyl]piperazine-1-carbonyl]-3,9-diazaspiro[5.5]undecan-9-yl]-2-(2,6-dioxo-3-piperidyl)isoindoline-1,3-dione]?
**A.** DC50: 37 nM; Emax: 52%

**Q.** How did the DC50 turn out when Nc1nnc(-c2ccccc2O)cc1N1CCC(C(=O)N2CCC3(CC2)CN(C(=O)CN2CCC(c4ccc(NC5CCC(=O)NC5=O)cc4)CC2)CCO3)(c2ccccc2)CC1 (stereo not drawn) [Example 169, 3-((4-(1-(2-(9-(1-(3-amino-6-(2-hydroxyphenyl)pyridazin-4-yl)-4-phenylpiperidine-4-carbonyl)-1-oxa-4,9-diazaspiro[5.5]undecan-4-yl)-2-oxoethyl)piperidin-4-yl)phenyl)amino)piperidine-2,6-dione] was run?
**A.** 49 nM

**Q.** And the Emax?
**A.** 56%

**Q.** What does the source list for Nc1nnc(-c2cc(F)ccc2O)cc1OC1CCCN(c2ccc(N3CCN(C(=O)CCCCCCCCn4cc(CNc5cccc6c5C(=O)N(C5CCC(=O)NC5=O)C6=O)nn4)CC3)cc2)C1 (stereo not drawn) [Example 64, 4-[[1-[9-[4-[4-[3-[3-amino-6-(5-fluoro-2-hydroxy-phenyl)pyridazin-4-yl]oxy-1-piperidyl]phenyl]piperazin-1-yl]-9-oxo-nonyl]triazol-4-yl]methylamino]-2-(2,6-dioxo-3-piperidyl)isoindoline-1,3-dione]?
**A.** DC50: 82 nM; Emax: 52%

**Q.** For Nc1nnc(-c2ccccc2O)cc1OC1CCCN(c2ccc(OCCN3CCN(C(=O)CCCCCCCCCCCCCCn4cc(CNc5cccc6c5C(=O)N(C5CCC(=O)NC5=O)C6=O)nn4)CC3)cc2)C1 (stereo not drawn) [Example 24, 4-[[1-[15-[4-[2-[4-[3-[3-amino-6-(2-hydroxyphenyl)pyridazin-4-yl]oxy-1-piperidyl]phenoxy]ethyl]piperazin-1-yl]-15-oxo-pentadecyl]triazol-4-yl]methylamino]-2-(2,6-dioxo-3-piperidyl)isoindoline-1,3-dione], which DC50 is on record?
**A.** 256 nM

**Q.** And the Emax?
**A.** 56%

**Q.** For Nc1nnc(-c2ccccc2O)cc1OCC(CNC(=O)CN1CCC(c2ccc(OC3CCC(=O)NC3=O)cc2)CC1)c1ccccc1 (racemic) [Example 98, N-[3-[3-amino-6-(2-hydroxyphenyl)pyridazin-4-yl]oxy-2-phenyl-propyl]-2-[4-[4-[(2,6-dioxo-3-piperidyl)oxy]phenyl]-1-piperidyl]acetamide;2,2,2-trifluoroacetic acid (racemic mixture of diastereomers)], which DC50 is on record?
**A.** 182 nM

**Q.** What about the Emax of the same molecule?
**A.** 63%

**Q.** Which DC50 does the source give for Nc1nnc(-c2ccccc2O)cc1N1CC2CCC(C1)N2c1cccc(OCCN2CCN(C(=O)N3CCN(c4ccc5c(c4)C(=O)N(C4CCC(=O)NC4=O)C5=O)CC3)CC2)c1 (racemic) [Example 49, rac-5-[4-[4-[2-[3-[3-[3-amino-6-(2-hydroxyphenyl)pyridazin-4-yl]-3,8-diazabicyclo[3.2.1]octan-8-yl]phenoxy]ethyl]piperazine-1-carbonyl]piperazin-1-yl]-2-(2,6-dioxo-3-piperidyl)isoindoline-1,3-dione] here?
**A.** 4 nM

**Q.** And the Emax?
**A.** 39%

**Q.** Which results are given for Nc1nnc(-c2ccccc2O)cc1N1CC2CCC(C1)N2c1cccc(CC2CCN(C(=O)CCNc3cccc4c3C(=O)N(C3CCC(=O)NC3=O)C4=O)CC2)c1 (racemic) [Example 58, rac-4-[[3-[4-[[3-[3-[3-amino-6-(2-hydroxyphenyl)pyridazin-4-yl]-3,8-diazabicyclo[3.2.1]octan-8-yl]phenyl]methyl]-1-piperidyl]-3-oxo-propyl]amino]-2-(2,6-dioxo-3-piperidyl)isoindoline-1,3-dione]?
**A.** DC50: 43 nM; Emax: 59%

**Q.** Which results are given for Nc1nnc(-c2ccccc2O)cc1N1CC2CCC(C1)N2c1cccc(CN2CCC(C(=O)NC3CN(c4ccc5c(c4)C(=O)N(C4CCC(=O)NC4=O)C5=O)C3)CC2)c1 (racemic) [Example 134, rac-1-[[3-[3-[3-amino-6-(2-hydroxyphenyl)pyridazin-4-yl]-3,8-diazabicyclo[3.2.1]octan-8-yl]phenyl]methyl]-N-[1-[2-(2,6-dioxo-3-piperidyl)-1,3-dioxo-isoindolin-5-yl]azetidin-3-yl]piperidine-4-carboxamide]?
**A.** DC50: 31 nM; Emax: 36%

**Q.** How did the DC50 turn out when Nc1nnc(-c2ccccc2O)cc1OC1CCCN(c2ccc(N3CCN(C(=O)CCCCCCCCN4CCC(Oc5ccc6c(c5)C(=O)N(C5CCC(=O)NC5=O)C6=O)CC4)CC3)cc2)C1 (stereo not drawn) [Example 44, 5-[[1-[9-[4-[4-[3-[3-amino-6-(2-hydroxyphenyl)pyridazin-4-yl]oxy-1-piperidyl]phenyl]piperazin-1-yl]-9-oxo-nonyl]-4-piperidyl]oxy]-2-(2,6-dioxo-3-piperidyl)isoindoline-1,3-dione] was run?
**A.** 133 nM

**Q.** And the Emax?
**A.** 61%

**Q.** Which results are given for Nc1nnc(-c2ccccc2O)cc1N1CC2CCC(C1)N2c1cccc(OCCN2CCN(C(=O)N3CCC(c4ccc(OC5CCC(=O)NC5=O)cc4)CC3)CC2)c1 (racemic) [Example 50, rac-3-[4-[1-[4-[2-[3-[3-[3-amino-6-(2-hydroxyphenyl)pyridazin-4-yl]-3,8-diazabicyclo[3.2.1]octan-8-yl]phenoxy]ethyl]piperazine-1-carbonyl]-4-piperidyl]phenoxy]piperidine-2,6-dione]?
**A.** DC50: 16 nM; Emax: 44%
